Reference: BindingDB's records for doi:10.1016/S0893-133X(01)00285-8 (Novartis Pharma, 2001)
pKi: −log10 of the molar value.

Assays:
[1] = target: Delta-type opioid receptor (Homo sapiens, UniProt P41143)
Substance-P receptor = Substance-P receptor (Homo sapiens, UniProt P25103)
[2] = target: Gastrin/cholecystokinin type B receptor (Homo sapiens, UniProt P32239)
Adenosine receptor A1 = Adenosine receptor A1 (Homo sapiens, UniProt P30542)
Adenosine receptor A2a = Adenosine receptor A2a (Homo sapiens, UniProt P29274)
Adenosine receptor A3 = Adenosine receptor A3 (Homo sapiens, UniProt P0DMS8)
[3] = target: 5-hydroxytryptamine receptor 6 (Homo sapiens, UniProt P50406)
[4] = target: Kappa-type opioid receptor (Homo sapiens, UniProt P41145)
Mu-type opioid receptor = Mu-type opioid receptor (Homo sapiens, UniProt P35372)
[5] = target: Sodium-dependent dopamine transporter (Homo sapiens, UniProt Q01959)
[6] = target: Sodium-dependent noradrenaline transporter (Homo sapiens, UniProt P23975)
[7] = target: 5-hydroxytryptamine receptor 7 (Homo sapiens, UniProt P34969)
[8] = target: Beta-2 adrenergic receptor (Homo sapiens, UniProt P07550)
[9] = target: 5-hydroxytryptamine receptor 3A (Homo sapiens, UniProt P46098)
Substance-K receptor = Substance-K receptor (Homo sapiens, UniProt P21452)
Neuromedin-K receptor = Neuromedin-K receptor (Homo sapiens, UniProt P29371)
[10] = target: Muscarinic acetylcholine receptor M3 (Homo sapiens, UniProt P20309)
[11] = target: Alpha-2B adrenergic receptor (Homo sapiens, UniProt P18089)
[12] = target: Alpha-2C adrenergic receptor (Homo sapiens, UniProt P18825)
[13] = target: Muscarinic acetylcholine receptor M2 (Homo sapiens, UniProt P08172)
[14] = target: Muscarinic acetylcholine receptor M1 (Homo sapiens, UniProt P11229)
[15] = target: Corticotropin-releasing factor receptor 2 (Homo sapiens) (UniProt Q13324)
[16] = target: Muscarinic acetylcholine receptor M4 (Homo sapiens, UniProt P08173)
[17] = target: Muscarinic acetylcholine receptor M5 (Homo sapiens, UniProt P08912)
Cannabinoid receptor 1 = Cannabinoid receptor 1 (Homo sapiens, UniProt P21554)
[18] = target: Beta-1 adrenergic receptor (Homo sapiens, UniProt P08588)
[19] = target: Alpha-2A adrenergic receptor (Homo sapiens, UniProt P08913)

Chain of Adenosine receptor A1 (P30542 whole entry): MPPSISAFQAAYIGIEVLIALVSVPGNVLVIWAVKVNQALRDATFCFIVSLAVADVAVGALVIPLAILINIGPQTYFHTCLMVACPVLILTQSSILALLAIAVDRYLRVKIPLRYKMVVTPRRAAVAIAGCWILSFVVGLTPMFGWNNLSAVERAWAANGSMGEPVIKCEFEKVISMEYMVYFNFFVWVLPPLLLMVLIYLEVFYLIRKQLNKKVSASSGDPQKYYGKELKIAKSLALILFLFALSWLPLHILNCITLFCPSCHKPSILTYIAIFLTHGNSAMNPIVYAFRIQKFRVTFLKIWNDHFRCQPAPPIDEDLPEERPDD
Chain of Neuromedin-K receptor (P29371 whole entry): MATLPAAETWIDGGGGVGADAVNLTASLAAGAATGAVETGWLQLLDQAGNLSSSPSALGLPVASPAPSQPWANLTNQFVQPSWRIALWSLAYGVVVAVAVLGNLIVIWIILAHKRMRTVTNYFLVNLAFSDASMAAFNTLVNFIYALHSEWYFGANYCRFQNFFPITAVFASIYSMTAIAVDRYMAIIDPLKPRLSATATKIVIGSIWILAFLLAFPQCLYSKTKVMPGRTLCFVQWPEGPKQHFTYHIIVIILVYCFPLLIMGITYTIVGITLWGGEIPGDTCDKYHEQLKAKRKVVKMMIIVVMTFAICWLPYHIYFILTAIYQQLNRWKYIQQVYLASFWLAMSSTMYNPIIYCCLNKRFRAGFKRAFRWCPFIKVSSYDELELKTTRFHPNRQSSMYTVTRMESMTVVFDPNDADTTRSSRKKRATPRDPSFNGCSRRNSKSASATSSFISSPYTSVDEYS
Chain of Muscarinic acetylcholine receptor M5 (P08912 whole entry): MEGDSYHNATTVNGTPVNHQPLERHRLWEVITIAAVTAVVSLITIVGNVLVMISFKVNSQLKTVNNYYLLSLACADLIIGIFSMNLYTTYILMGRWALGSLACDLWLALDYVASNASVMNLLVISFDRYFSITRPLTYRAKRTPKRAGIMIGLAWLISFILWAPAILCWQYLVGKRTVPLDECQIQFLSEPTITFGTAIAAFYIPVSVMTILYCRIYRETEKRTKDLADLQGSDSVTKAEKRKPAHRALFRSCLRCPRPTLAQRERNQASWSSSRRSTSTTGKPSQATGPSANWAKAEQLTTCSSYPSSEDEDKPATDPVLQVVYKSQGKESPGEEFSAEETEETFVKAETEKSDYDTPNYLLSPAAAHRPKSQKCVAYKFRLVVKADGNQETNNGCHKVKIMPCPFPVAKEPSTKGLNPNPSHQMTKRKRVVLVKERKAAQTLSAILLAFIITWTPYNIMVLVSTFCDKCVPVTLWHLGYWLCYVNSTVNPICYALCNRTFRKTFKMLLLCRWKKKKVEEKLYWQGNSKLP
Chain of Corticotropin-releasing factor receptor 2 (Homo sapiens) (Q13324 whole entry, looked up): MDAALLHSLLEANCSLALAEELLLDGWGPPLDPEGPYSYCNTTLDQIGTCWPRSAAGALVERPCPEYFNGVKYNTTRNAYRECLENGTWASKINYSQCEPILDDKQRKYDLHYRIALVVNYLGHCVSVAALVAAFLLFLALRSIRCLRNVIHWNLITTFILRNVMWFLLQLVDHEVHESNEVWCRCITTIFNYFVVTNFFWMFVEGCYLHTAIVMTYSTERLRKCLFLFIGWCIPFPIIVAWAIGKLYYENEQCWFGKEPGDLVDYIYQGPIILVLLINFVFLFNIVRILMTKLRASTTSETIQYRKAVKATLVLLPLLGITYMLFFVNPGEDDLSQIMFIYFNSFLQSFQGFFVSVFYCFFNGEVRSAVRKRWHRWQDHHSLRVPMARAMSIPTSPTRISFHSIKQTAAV
Chain of Adenosine receptor A3 (P0DMS8 whole entry): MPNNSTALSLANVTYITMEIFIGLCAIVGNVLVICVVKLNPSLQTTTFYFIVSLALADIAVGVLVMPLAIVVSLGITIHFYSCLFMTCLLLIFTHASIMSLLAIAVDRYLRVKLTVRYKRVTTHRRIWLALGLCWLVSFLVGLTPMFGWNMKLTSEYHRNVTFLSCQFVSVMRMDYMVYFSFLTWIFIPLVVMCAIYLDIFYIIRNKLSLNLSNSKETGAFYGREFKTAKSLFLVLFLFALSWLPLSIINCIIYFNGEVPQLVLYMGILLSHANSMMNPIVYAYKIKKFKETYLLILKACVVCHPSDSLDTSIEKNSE
Chain of Alpha-2B adrenergic receptor (P18089 whole entry): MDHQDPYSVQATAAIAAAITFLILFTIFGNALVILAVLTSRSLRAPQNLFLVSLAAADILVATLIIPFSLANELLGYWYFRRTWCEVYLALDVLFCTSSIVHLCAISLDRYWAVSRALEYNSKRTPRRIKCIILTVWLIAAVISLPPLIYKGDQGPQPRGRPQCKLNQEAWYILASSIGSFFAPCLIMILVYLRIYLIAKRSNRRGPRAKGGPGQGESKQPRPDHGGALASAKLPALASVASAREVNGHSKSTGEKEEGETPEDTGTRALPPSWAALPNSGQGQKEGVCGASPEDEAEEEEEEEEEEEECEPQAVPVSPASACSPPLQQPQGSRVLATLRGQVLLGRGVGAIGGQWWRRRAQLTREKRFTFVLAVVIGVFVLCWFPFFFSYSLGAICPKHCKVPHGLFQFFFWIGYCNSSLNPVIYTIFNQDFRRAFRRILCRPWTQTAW
Chain of Sodium-dependent noradrenaline transporter (P23975 whole entry): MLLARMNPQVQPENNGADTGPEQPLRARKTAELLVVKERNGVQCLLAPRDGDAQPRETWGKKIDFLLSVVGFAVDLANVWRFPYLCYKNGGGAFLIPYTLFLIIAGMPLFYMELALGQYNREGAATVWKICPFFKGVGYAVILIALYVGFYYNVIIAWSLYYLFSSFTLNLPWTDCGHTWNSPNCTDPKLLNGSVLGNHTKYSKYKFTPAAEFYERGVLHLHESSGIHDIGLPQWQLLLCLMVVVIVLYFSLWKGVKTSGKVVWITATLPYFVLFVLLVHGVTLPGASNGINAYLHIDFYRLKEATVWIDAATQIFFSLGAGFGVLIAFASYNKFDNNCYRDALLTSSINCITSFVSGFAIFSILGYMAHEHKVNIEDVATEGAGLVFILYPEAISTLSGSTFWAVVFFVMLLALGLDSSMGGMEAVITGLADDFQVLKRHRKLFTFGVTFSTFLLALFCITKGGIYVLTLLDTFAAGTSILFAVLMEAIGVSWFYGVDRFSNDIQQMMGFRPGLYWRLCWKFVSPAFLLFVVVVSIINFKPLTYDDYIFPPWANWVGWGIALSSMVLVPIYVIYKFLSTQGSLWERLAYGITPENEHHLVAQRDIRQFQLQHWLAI
Chain of Adenosine receptor A2a (P29274 whole entry): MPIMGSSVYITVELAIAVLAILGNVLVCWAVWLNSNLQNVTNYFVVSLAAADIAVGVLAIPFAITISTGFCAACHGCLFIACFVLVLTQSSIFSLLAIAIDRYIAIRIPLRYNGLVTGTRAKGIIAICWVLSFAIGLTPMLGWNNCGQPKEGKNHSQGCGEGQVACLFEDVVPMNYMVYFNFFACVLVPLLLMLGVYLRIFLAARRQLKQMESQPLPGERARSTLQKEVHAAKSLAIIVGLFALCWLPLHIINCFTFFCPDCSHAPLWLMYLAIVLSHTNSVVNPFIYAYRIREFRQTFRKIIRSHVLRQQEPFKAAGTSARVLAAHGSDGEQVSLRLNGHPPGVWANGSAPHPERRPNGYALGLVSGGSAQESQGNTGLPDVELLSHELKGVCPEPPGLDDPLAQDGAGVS
Chain of Beta-1 adrenergic receptor (P08588 whole entry): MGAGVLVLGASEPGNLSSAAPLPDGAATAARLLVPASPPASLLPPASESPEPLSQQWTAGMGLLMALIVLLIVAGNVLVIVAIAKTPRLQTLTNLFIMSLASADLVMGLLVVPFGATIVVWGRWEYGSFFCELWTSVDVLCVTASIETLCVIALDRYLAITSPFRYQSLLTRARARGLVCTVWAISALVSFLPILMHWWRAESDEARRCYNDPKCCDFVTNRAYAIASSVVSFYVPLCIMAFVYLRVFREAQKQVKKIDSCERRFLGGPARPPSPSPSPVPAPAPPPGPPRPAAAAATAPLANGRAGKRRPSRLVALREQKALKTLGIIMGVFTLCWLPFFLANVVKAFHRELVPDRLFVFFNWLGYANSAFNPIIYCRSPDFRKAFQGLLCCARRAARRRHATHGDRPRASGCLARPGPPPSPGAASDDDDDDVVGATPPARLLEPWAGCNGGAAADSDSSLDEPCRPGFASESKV
Chain of Muscarinic acetylcholine receptor M4 (P08173 whole entry): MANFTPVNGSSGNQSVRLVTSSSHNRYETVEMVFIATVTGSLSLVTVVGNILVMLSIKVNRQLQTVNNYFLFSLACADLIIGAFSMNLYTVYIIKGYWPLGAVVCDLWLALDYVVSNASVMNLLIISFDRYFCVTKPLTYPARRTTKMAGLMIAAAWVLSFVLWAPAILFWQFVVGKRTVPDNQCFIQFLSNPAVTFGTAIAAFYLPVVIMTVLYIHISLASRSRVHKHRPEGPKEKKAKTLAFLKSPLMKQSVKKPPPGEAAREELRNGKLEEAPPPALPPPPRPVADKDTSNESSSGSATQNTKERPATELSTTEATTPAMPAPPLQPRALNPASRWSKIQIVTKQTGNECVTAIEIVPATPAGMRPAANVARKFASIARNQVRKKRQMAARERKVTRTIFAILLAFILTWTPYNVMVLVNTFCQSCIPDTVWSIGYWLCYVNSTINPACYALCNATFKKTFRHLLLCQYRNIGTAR
Chain of Cannabinoid receptor 1 (P21554 whole entry): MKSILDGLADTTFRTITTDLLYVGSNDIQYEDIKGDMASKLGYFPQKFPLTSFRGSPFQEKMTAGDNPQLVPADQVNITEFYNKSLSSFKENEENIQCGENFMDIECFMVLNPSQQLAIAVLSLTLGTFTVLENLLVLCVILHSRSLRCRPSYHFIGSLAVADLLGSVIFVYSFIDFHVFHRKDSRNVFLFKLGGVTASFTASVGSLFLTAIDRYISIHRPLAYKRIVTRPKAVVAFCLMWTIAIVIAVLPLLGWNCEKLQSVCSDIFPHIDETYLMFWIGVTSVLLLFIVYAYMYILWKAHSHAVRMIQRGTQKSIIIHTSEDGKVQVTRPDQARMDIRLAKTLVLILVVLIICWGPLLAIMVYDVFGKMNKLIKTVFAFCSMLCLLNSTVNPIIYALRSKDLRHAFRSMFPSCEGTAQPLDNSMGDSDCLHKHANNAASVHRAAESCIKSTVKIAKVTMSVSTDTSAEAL

Q: `COc1cc(C(C)=O)ccc1OCCCN1CCC(c2noc3cc(F)ccc23)CC1` was tested. Which pKi [1] did it give?
A: < 5.00

Q: And the pKi (Substance-P receptor)?
A: < 5.00

Q: And the pKi [2]?
A: 5.03

Q: And the pKi (Adenosine receptor A1)?
A: < 5.00

Q: What about the pKi (Adenosine receptor A2a) of the same compound?
A: < 5.00

Q: What about the pKi (Adenosine receptor A3) of the same compound?
A: < 5.00

Q: And the pKi [3]?
A: 7.20

Q: And the pKi [4]?
A: < 5.00

Q: And the pKi (Mu-type opioid receptor)?
A: < 5.00

Q: And the pKi [5]?
A: 5.53

Q: And the pKi [6]?
A: 5.83

Q: And the pKi [7]?
A: 6.95

Q: What about the pKi [8] of the same compound?
A: < 5.00

Q: And the pKi [9]?
A: < 5.00

Q: What about the pKi (Substance-K receptor) of the same compound?
A: < 5.00

Q: And the pKi (Neuromedin-K receptor)?
A: < 5.00

Q: What about the pKi [10] of the same compound?
A: < 5.00

Q: And the pKi [11]?
A: 6.79

Q: And the pKi [12]?
A: 7.79

Q: What about the pKi [13] of the same compound?
A: 5.48

Q: What about the pKi [14] of the same compound?
A: 5.31

Q: What about the pKi [15] of the same compound?
A: < 5.00

Q: What about the pKi [16] of the same compound?
A: 5.08

Q: What about the pKi [17] of the same compound?
A: < 5.00

Q: What about the pKi (Cannabinoid receptor 1) of the same compound?
A: < 5.00

Q: What about the pKi [18] of the same compound?
A: < 5.00

Q: And the pKi [19]?
A: 6.79
